Test results: US20100099710A1, “SRC FAMILY KINASE INHIBITORS” (priority 2007, published 2010)

How the values were obtained:
[1] = tested on: Collagen induced arthritis; test: Collagen induced arthritis (CIA), mice; format: in vivo; conditions: 3 mg/kg p.o.
Procedure: (§1) Collagen induced arthritis is a commonly used and widely accepted arthritis model. Immunologically, the model is dominated by a Th1 response; it is antigen specific and depends on both the B- and T-cell response. This model is responsive to most therapies effective in rheumatoid arthritis in humans except NSAIDs.
In order to induce arthritis, the mice were immunised intradermally (i.d.) at the base of the tail with 100 μl of CII emulsion (2 mg/ml) in FCA (2 mg/ml of M. tuberculosis). The mice were re-immunised i.d. 21 days later with 100 μl of CII emulsion (1 mg/ml) in FIA. The test compound was administrated once daily from the initiation of treatment to the day before the end of the experiment.
(§2) Starting from 21 days after the induction of CIA, the mice were weighed twice a week and the inflammation of the four paws was graded from 0 to 4: • 0: Normal • 1: Swelling of 1-2 toe joints or swelling of metatarsus/metacarpus without swelling of toe joints. • 2: Swelling of >2 toe joints or swelling of toe joints and metatarsus/metacarpus • 3: Severe swelling of the paw including metatarsus/metacarpus • 4: Very severe swelling of the paw resulting in chapped skin. The animals are euthanised. The sum of the scores from the four paws is reported as the arthritis score for each mouse. The maximum score obtainable is therefore 16.
(§3) The area under curve (AUC) of the arthritis score was calculated for all mice and used as a disease index. The treatment effect (inhibitory effect) of the compounds is calculated as:
(§4) 1−(AUCtreatment group)/(AUCvehicle group)
The medians of the AUC from all groups were compared using the Kruskal-Wallis test. When P<0.05 in the Kruskal-Wallis test, the Mann Whitney test was used to compare the AUCs for individual mice in drug treated groups with the AUC for mice in the control group which were treated with vehicle (significance level P<0.05).

[2] = tested on: Collagen induced arthritis; test: Collagen induced arthritis (CIA), rats; format: in vivo; conditions: 5 mg/kg p.o.
Excerpt: as §1, §2, §3, §4
Lewis inbred rats (Harlan), 6 females per group, approximately 11 weeks old were immunised intradermally (i.d.) at the base of the tail with 200 μl of CII emulsion (1 mg/ml) in incomplete Freunds adjuvant (FIA). The rats were re-immunised 10 days later with 50 μl of CII emulsion (1 mg/ml) in FIA. From day 12 the inflammation of each paw was graded and calculated as described for the mouse model. The test-compound was administrated orally from day 10 or from day 14. The last day of treatment was the day before the end of the experiment.

[3] = Table 7, first experiment, printed treated from day 10
[4] = Table 7, first experiment, treated from day 10
[5] = Table 8, second experiment, treated from day 10
[6] = Table 8, second experiment, treated from day 14

C[C@]12C=CC(=O)C=C1CC[C@@H]1[C@@H]2[C@@H](O)C[C@@]2(C)[C@H]1CC[C@]2(O)C(=O)CO [Prednisolone]
AUC of arthritis score, Average ([1]; Table 5): 27
Percent of vehicle control (group 1) ([1]; Table 5, vehicle day 10): −84%
AUC of arthritis score, Average ([1]; Table 6): 27
Percent of vehicle control (group 1) ([1]; Table 6, vehicle day 28): −78%
AUC of arthritis score, Average [2, 3]: 9
Percent of vehicle control (group 1) [2, 3]: −74%
AUC of arthritis score, Average [2, 4]: 0.2
Percent of vehicle control (group 1) [2, 4]: −100%
AUC of arthritis score, Average [2, 5]: 0
Percent of vehicle control (group 1) [2, 5]: −−100%
AUC of arthritis score, Average [2, 6]: 8
Percent of vehicle control (group 1) [2, 6]: −78%
